In this test the test system is PANK2 silenced human neuroblastoma IMR32 cells (PANK2−/−). The test is described as follows: Coenzyme A assay in PANK2 silenced cells (LC-MS quantification of free CoA). It is filed as cell-based. The following applies: compound added twice (24 h + 24 h), relative to 0.1% DMSO controls. A digest of the protocol:
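PANK2 shRNA-silenced IMR32 neuroblastoma cells were treated with compound (0.1% DMSO) for 24 h, then re-dosed with fresh compound for a further 24 h at 37 °C. TFA extracts of 1×10^6 cells were assayed for free CoA by LC-MS/MS (MRM 768.1→261.6/136.1). Results are given as fold change versus DMSO controls.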

This note sets out measurements from patent publication US10364263B2, “Cyclic phosphates and cyclic phosphoramidates for the treatment of neurologic disorders” (Retrophin, Inc., priority 2015, dated 2019).

Molecules are shown by their SMILES.

As for `COC(=O)CCNC(=O)[C@@H]1OP(=O)(OCOC(=O)NCCOC(=O)[C@@H](N)C(C)C)OCC1(C)C` (stereo partly drawn) [2-195, 2-((((((4R)-4-((3-methoxy-3-oxopropyl)carbamoyl)-5,5-dimethyl-2-oxido-1,3,2-dioxaphosphinan-2-yl)oxy)methoxy)carbonyl)amino)ethyl L-valinate], the “PANK2−/− CoA (Fold Increase): fold increase in Coenzyme A (CoA) levels relative to controls” value is recorded as 1.91 Fold Increase.

On to `CCOC(=O)[C@H](CCc1ccccc1)NP1(=O)OCC(C)(C)[C@H](C(=O)NCCC(=O)OC)O1` (stereo partly drawn) [compound 6, ethyl (2S)-2-[[(4R)-4-[(3-methoxy-3-oxo-propyl)carbamoyl]-5,5-dimethyl-2-oxo-1,3,2-dioxaphosphinan-2-yl]amino]-4-phenyl-butanoate], for which the “PANK2−/− CoA (Fold Increase): fold increase in Coenzyme A (CoA) levels relative to controls” value was 1.11 Fold Increase.

As to `COC(=O)CCNC(=O)[C@@H]1OP(=O)(OCOC(=O)[C@H]2COC(=O)N2C(=O)OC(C)(C)C)OCC1(C)C` (stereo partly drawn) [2-196, 3-(tert-butyl) 4-((((4R)-4-((3-methoxy-3-oxopropyl)carbamoyl)-5,5-dimethyl-2-oxido-1,3,2-dioxaphosphinan-2-yl)oxy)methyl) (4R)-2-oxooxazolidine-3,4-dicarboxylate], the “PANK2−/− CoA (Fold Increase): fold increase in Coenzyme A (CoA) levels relative to controls” value is given as 1.97 Fold Increase. To `COC(=O)CCNC(=O)[C@@H]1OP(=O)(OCOC(=O)N[C@@H](CSC(=O)C(C)(C)C)C(=O)OCC(=O)c2ccccc2)OCC1(C)C` (stereo partly drawn) [2-202, 2-oxo-2-phenylethyl N-(((((4R)-4-((3-methoxy-3-oxopropyl)carbamoyl)-5,5-dimethyl-2-oxido-1,3,2-dioxaphosphinan-2-yl)oxy)methoxy)carbonyl)-S-pivaloyl-L-cysteinate] belongs 2.62 Fold Increase; to `CC(C)(C)C(=O)OCO[P@@]1(=O)OCC(C)(C)[C@H](C(=O)NCCC(=O)OCCC#N)O1` (single isomer, unassigned) [Compound No. 77], 93.86 Fold Increase; to `CCOC(=O)[C@H](Cc1ccccc1)NC(=O)OCOP1(=O)OCC(C)(C)[C@H](C(=O)NCCC(=O)OC)O1` (stereo partly drawn) [2-137, ethyl (((((4R)-4-((3-methoxy-3-oxopropyl)carbamoyl)-5,5-dimethyl-2-oxido-1,3,2-dioxaphosphinan-2-yl)oxy)methoxy)carbonyl)-L-phenylalaninate], 1.1 Fold Increase. As to `COC(=O)CCNC(=O)[C@@H]1O[P@@](=O)(Oc2ccc(S(F)(F)(F)(F)F)cc2)OCC1(C)C` [2-124, methyl 3-((2S,4R)-5,5-dimethyl-2-oxido-2-(4-(pentafluoro-16-sulfanyl)phenoxy)-1,3,2-dioxaphosphinane-4-carboxamido)propanoate], the “PANK2−/− CoA (Fold Increase): fold increase in Coenzyme A (CoA) levels relative to controls” value was found to be 1.12 Fold Increase. To `CC(C)OC(=O)CCNC(=O)[C@@H]1OP(=O)(O)OCC1(C)C` [2-110, isopropyl 3-((4R)-2-hydroxy-5,5-dimethyl-2-oxido-1,3,2-dioxaphosphinane-4-carboxamido)propanoate] belongs 2.17 Fold Increase.

`COC(=O)CCNC(=O)[C@@H]1O[P@](=O)(Oc2ccc(S(F)(F)(F)(F)F)cc2)OCC1(C)C` (single isomer, unassigned) [Compound No. 2-125]: the “PANK2−/− CoA (Fold Increase): fold increase in Coenzyme A (CoA) levels relative to controls” value was 34.02 Fold Increase. Consider `COC(=O)CCNC(=O)[C@@H]1O[P@](=O)(N2CCS(=O)(=O)CC2)OCC1(C)C` [compound 138, methyl 3-((2S,4R)-2-(1,1-dioxidothiomorpholino)-5,5-dimethyl-2-oxido-1,3,2-dioxaphosphinane-4-carboxamido) propanoate], for which the “PANK2−/− CoA (Fold Increase): fold increase in Coenzyme A (CoA) levels relative to controls” value was 1.7 Fold Increase.

Regarding `COC(=O)CCNC(=O)[C@@H]1OP(=O)(OCOC(=O)c2ccno2)OCC1(C)C` (stereo partly drawn) [Compound No. 2-141, (((4R)-4-((3-methoxy-3-oxopropyl)carbamoyl)-5,5-dimethyl-2-oxido-1,3,2-dioxaphosphinan-2-yl)oxy)methyl isoxazole-5-carboxylate], the “PANK2−/− CoA (Fold Increase): fold increase in Coenzyme A (CoA) levels relative to controls” value is 7.62 Fold Increase. In the case of `CC(C)(C)OC(=O)CCNC(=O)[C@@H]1OP(=O)(O)OCC1(C)C` [Compound No. 2-111, tert-butyl 3-((4R)-2-hydroxy-5,5-dimethyl-2-oxido-1,3,2-dioxaphosphinane-4-carboxamido)propanoate], the “PANK2−/− CoA (Fold Increase): fold increase in Coenzyme A (CoA) levels relative to controls” value is 1.16 Fold Increase. For the molecule `COC(=O)CCNC(=O)[C@@H]1OP(=O)(OCOC(=O)c2cc(C(C)(C)C)n[nH]2)OCC1(C)C` (stereo partly drawn) [2-146, (((4R)-4-((3-methoxy-3-oxopropyl)carbamoyl)-5,5-dimethyl-2-oxido-1,3,2-dioxaphosphinan-2-yl)oxy)methyl 3-(tert-butyl)-1H-pyrazole-5-carboxylate], the “PANK2−/− CoA (Fold Increase): fold increase in Coenzyme A (CoA) levels relative to controls” value is on record as 84.86 Fold Increase.

`CO[13C](=O)[13CH2][13CH2][15NH]C(=O)[C@@H]1OP(=O)(Oc2ccccc2)OCC1(C)C` (stereo partly drawn) [2-109, methyl 3-((4R)-5,5-dimethyl-2-oxido-2-phenoxy-1,3,2-dioxaphosphinane-4-carboxamido-15N)propanoate-1,2,3-13C3]: the “PANK2−/− CoA (Fold Increase): fold increase in Coenzyme A (CoA) levels relative to controls” value amounted to 2.04 Fold Increase.

For the molecule `COC(=O)CCNC(=O)[C@@H]1OP(=O)(N[C@@H](Cc2ccccc2)C(=O)OC)OCC1(C)C` (stereo partly drawn) [compound 9, methyl ((4R)-4-((3-methoxy-3-oxopropyl)carbamoyl)-5,5-dimethyl-2-oxido-1,3,2-dioxaphosphinan-2-yl)-L-phenylalaninate], the “PANK2−/− CoA (Fold Increase): fold increase in Coenzyme A (CoA) levels relative to controls” value was determined as 1.83 Fold Increase. For the molecule `COC(=O)CCNC(=O)[C@@H]1OP(=O)(OCOC(=O)NC(C)(C)COC(C)=O)OCC1(C)C` (stereo partly drawn) [2-152, methyl 3-((4R)-2-((((l-acetoxy-2-methylpropan-2-yl)carbamoyl)oxy)methoxy)-5,5-dimethyl-2-oxido-1,3,2-dioxaphosphinane-4-carboxamido)propanoate], the “PANK2−/− CoA (Fold Increase): fold increase in Coenzyme A (CoA) levels relative to controls” value is 1.24 Fold Increase.

For `COC(=O)CCNC(=O)[C@@H]1O[P@@](=O)(Oc2ccc(C[C@H](N)C(=O)OC)cc2)OCC1(C)C` (single isomer, unassigned) [2-162], the “PANK2−/− CoA (Fold Increase): fold increase in Coenzyme A (CoA) levels relative to controls” value is reported as 9.73 Fold Increase. In the case of `COC(=O)CCNC(=O)[C@@H]1O[P@@](=O)(Oc2ccc(C[C@H](NC(=O)OC(C)(C)C)C(=O)OC)cc2)OCC1(C)C` (single isomer, unassigned) [2-204] it was 5.75 Fold Increase. For `COC(=O)CCNC(=O)[C@@H]1O[P@@](=O)(OCOC(=O)N[C@@H](CSC(=O)C(C)(C)C)C(=O)OCC(=O)c2ccccc2)OCC1(C)C` [2-199, 2-oxo-2-phenylethyl N-(((((2S,4R)-4-((3-methoxy-3-oxopropyl)carbamoyl)-5,5-dimethyl-2-oxido-1,3,2-dioxaphosphinan-2-yl)oxy)methoxy)carbonyl)-S-pivaloyl-L-cysteinate], the “PANK2−/− CoA (Fold Increase): fold increase in Coenzyme A (CoA) levels relative to controls” value turned out to be 1.98 Fold Increase. As to `COC(=O)CCNC(=O)[C@@H]1O[P@](=O)(OCOC(=O)c2cc(C(C)(C)C)nn2C)OCC1(C)C` [2-170, (((2R,4R)-4-((3-methoxy-3-oxopropyl)carbamoyl)-5,5-dimethyl-2-oxido-1,3,2-dioxaphosphinan-2-yl)oxy)methyl 3-(tert-butyl)-1-methyl-1H-pyrazole-5-carboxylate], the “PANK2−/− CoA (Fold Increase): fold increase in Coenzyme A (CoA) levels relative to controls” value was found to be 82.88 Fold Increase. On to `COC(=O)CCNC(=O)[C@@H]1O[P@@](=O)(OCOC(=O)NC(C)(C)COC(=O)[C@@H](N)C(C)C)OCC1(C)C` [2-158, 2-((((((2S,4R)-4-((3-methoxy-3-oxopropyl)carbamoyl)-5,5-dimethyl-2-oxido-1,3,2-dioxaphosphinan-2-yl)oxy)methoxy)carbonyl)amino)-2-methylpropyl L-valinate], for which the “PANK2−/− CoA (Fold Increase): fold increase in Coenzyme A (CoA) levels relative to controls” value came out at 2.72 Fold Increase.

As for `CCCC(=O)OCOP1(=O)OCC(C)(C)[C@H](C(=O)NCCC(=O)OC)O1` (stereo partly drawn) [Compound No. 66, (((4R)-4-((3-methoxy-3-oxopropyl)carbamoyl)-5,5-dimethyl-2-oxido-1,3,2-dioxaphosphinan-2-yl)oxy)methyl butyrate], the “PANK2−/− CoA (Fold Increase): fold increase in Coenzyme A (CoA) levels relative to controls” value is on record as 83.72 Fold Increase. To `COC(=O)CCNC(=O)[C@@H]1O[P@@](=O)(OCOC(=O)NC(C)(C)COC(=O)[C@@H](NC(=O)OCc2ccccc2)C(C)C)OCC1(C)C` [2-172, 2-((((((2S,4R)-4-((3-methoxy-3-oxopropyl)carbamoyl)-5,5-dimethyl-2-oxido-1,3,2-dioxaphosphinan-2-yl)oxy)methoxy)carbonyl)amino)-2-methylpropyl ((benzyloxy)carbonyl)-L-valinate] belongs 1.95 Fold Increase.
